From ChEMBL document CHEMBL3271967, “Evidence for separate peptide sequences related to the lipolytic and magnesium-accumulating activities of ACTH. Analogy with adrenergic receptors” (J Med Chem, 1977)
Calls of active or inactive are those of the source. The calls are words filed in the database; no cut-off is given here. Residues, ends and D or L forms follow the SMILES beside them.

What was measured:
Rattus norvegicus [1] = species on record: Rattus norvegicus; test: Induction of magnesium accumulation in rat adipocyte plasma membrane vesicles assessed as increase of intravesicular magnesium level per 30 mins at 5 x 10^-8 M by fluorescence assay; assay type: functional, cell membranes
Rattus norvegicus [2] = species on record: Rattus norvegicus; test: Induction of magnesium accumulation in rat adipocyte plasma membrane vesicles assessed as increase of magnesium level per gram of protein per 30 mins at 5 x 10^-8 M by fluorescence assay; assay type: functional, cell membranes
Lipid bilayer = test: Lipolytic activity in isolated rat adipocytes assessed as fatty acid release at 0.5 to 100 nmol/ml
Rattus norvegicus [3] = species on record: Rattus norvegicus; test: Induction of magnesium accumulation in rat adipocyte plasma membrane vesicles assessed as increase of intravesicular magnesium level per 30 mins at 1 x 10^-5 M by fluorescence assay; assay type: functional, cell membranes
Rattus norvegicus [4] = species on record: Rattus norvegicus; test: Induction of magnesium accumulation in rat adipocyte plasma membrane vesicles assessed as increase of magnesium level per gram of protein per 30 mins at 1 x 10^-5 M by fluorescence assay; assay type: functional, cell membranes
Rattus norvegicus [5] = species on record: Rattus norvegicus; test: Induction of magnesium accumulation in rat adipocyte plasma membrane vesicles assessed as increase of intravesicular magnesium level per 30 mins at 2 x 10^-4 M by fluorescence assay; assay type: functional, cell membranes
Rattus norvegicus [6] = species on record: Rattus norvegicus; test: Induction of magnesium accumulation in rat adipocyte plasma membrane vesicles assessed as increase of magnesium level per gram of protein per 30 mins at 2 x 10^-4 M by fluorescence assay; assay type: functional, cell membranes
Rattus norvegicus [7] = species on record: Rattus norvegicus; test: Induction of magnesium accumulation in rat adipocyte plasma membrane vesicles assessed as increase of intravesicular magnesium level per 30 mins at 1 x 10^-5 M by fluorescence assay in presence of beta-adrenergic antagonist propranolol; assay type: functional, cell membranes
Rattus norvegicus [8] = species on record: Rattus norvegicus; test: Induction of magnesium accumulation in rat adipocyte plasma membrane vesicles assessed as increase of magnesium level per gram of protein per 30 mins at 1 x 10^-5 M by fluorescence assay in presence of beta-adrenergic antagonist propranolol; assay type: functional, cell membranes
Rattus norvegicus [9] = species on record: Rattus norvegicus; test: Induction of magnesium accumulation in rat adipocyte plasma membrane vesicles assessed as increase of intravesicular magnesium level per 30 mins at 1 x 10^-5 M by fluorescence assay in presence of alpha-adrenergic antagonist phentolamine; assay type: functional, cell membranes
Rattus norvegicus [10] = species on record: Rattus norvegicus; test: Induction of magnesium accumulation in rat adipocyte plasma membrane vesicles assessed as increase of magnesium level per gram of protein per 30 mins at 1 x 10^-5 M by fluorescence assay in presence of alpha-adrenergic antagonist phentolamine; assay type: functional, cell membranes

SMILES	Activity (Rattus norvegicus [1])	Activity (Rattus norvegicus [2])	Activity (Lipid bilayer)	Activity (Rattus norvegicus [3])	Activity (Rattus norvegicus [4])	further results
CC(C)[C@H](NC(=O)[C@H](CCCCN)NC(=O)[C@@H](NC(=O)[C@@H]1CCCN1C(=O)[C@H](CCCNC(=N)N)NC(=O)[C@H](CCCNC(=N)N)NC(=O)[C@H](CCCCN)NC(=O)[C@H](CCCCN)NC(=O)CNC(=O)[C@@H](NC(=O)[C@@H]1CCCN1C(=O)[C@@H](N)CCCCN)C(C)C)C(C)C)C(=O)N[C@@H](Cc1ccc(O)cc1)C(=O)N1CCC[C@H]1C(=O)O (H-KPVGKKRRPVKVYP-OH)	0.8 mM	8.32 µmol	inactive	–	–	–
CC(C)NCC(O)c1ccc(O)c(O)c1 (stereo not drawn)	–	–	–	0.3 mM	3.12 µmol	–
CSCC[C@H](NC(=O)[C@H](CO)NC(=O)[C@H](Cc1ccc(O)cc1)NC(=O)[C@@H](N)CO)C(=O)N[C@@H](CCC(=O)O)C(=O)N[C@@H](Cc1cnc[nH]1)C(=O)N[C@@H](Cc1ccccc1)C(=O)N[C@@H](CCCNC(=N)N)C(=O)N[C@@H](Cc1c[nH]c2ccccc12)C(=O)NCC(=O)N[C@@H](CCCCN)C(=O)N1CCC[C@H]1C(=O)N[C@H](C(=O)NCC(=O)N[C@@H](CCCCN)C(=O)N[C@@H](CCCCN)C(=O)N[C@@H](CCCNC(=N)N)C(=O)N[C@@H](CCCNC(=N)N)C(=O)N1CCC[C@H]1C(=O)N[C@H](C(=O)O)C(C)C)C(C)C (H-SYSMEHFRWGKPVGKKRRPV-OH)	0.36 mM	3.74 µmol	Active	–	–	–
COc1ccc(OC)c(C(O)C(C)N)c1 (stereo not drawn)	–	–	–	–	–	Activity (Rattus norvegicus [5]): 1.07 mM; Activity (Rattus norvegicus [6]): 11.1 µmol
NC[C@H](O)c1ccc(O)c(O)c1	–	–	–	1.3 mM	13.5 µmol	Activity (Rattus norvegicus [7]): 0.85 mM; Activity (Rattus norvegicus [8]): 8.84 µmol; Activity (Rattus norvegicus [9]): 0.37 mM; Activity (Rattus norvegicus [10]): 3.85 µmol
CSCC[C@H](NC(=O)[C@H](CO)NC(=O)[C@H](Cc1ccc(O)cc1)NC(=O)[C@@H](N)CO)C(=O)N[C@@H](CCC(=O)O)C(=O)N[C@@H](Cc1cnc[nH]1)C(=O)N[C@@H](Cc1ccccc1)C(=O)N[C@@H](CCCNC(=N)N)C(=O)N[C@@H](Cc1c[nH]c2ccccc12)C(=O)NCC(=O)N[C@@H](CCCCN)C(=O)N1CCC[C@H]1C(=O)N[C@H](C(=O)NCC(=O)N[C@@H](CCCCN)C(=O)N[C@@H](CCCCN)C(=O)N[C@@H](CCCNC(=N)N)C(=O)N[C@@H](CCCNC(=N)N)C(=O)N1CCC[C@H]1C(=O)N[C@H](C(=O)N[C@@H](CCCCN)C(=O)N[C@H](C(=O)N[C@@H](Cc1ccc(O)cc1)C(=O)N1CCC[C@H]1C(=O)N[C@@H](CC(N)=O)C(=O)NCC(=O)N[C@@H](C)C(=O)N[C@@H](CCC(=O)O)C(=O)N[C@@H](CC(=O)O)C(=O)N[C@@H](CCC(=O)O)C(=O)N[C@@H](CC(C)C)C(=O)N[C@@H](C)C(=O)N[C@@H](CCC(=O)O)C(=O)N[C@@H](C)C(=O)N[C@@H](Cc1ccccc1)C(=O)N1CCC[C@H]1C(=O)N[C@@H](CC(C)C)C(=O)N[C@@H](CCC(=O)O)C(=O)N[C@@H](Cc1ccccc1)C(=O)O)C(C)C)C(C)C)C(C)C (H-SYSMEHFRWGKPVGKKRRPVKVYPNGAEDELAEAFPLEF-OH)	0.94 mM	9.78 µmol	–	–	–	–
